IC50 data for 21 compounds are collected here from patent US12637454B2, “Heterocyclic monoacylglycerol lipase (MAGL) inhibitors” (Hoffmann-La Roche Inc., priority 2019, dated 2026).

The target of the test is T1, MAGL (Homo sapiens, UniProt Q99685).
T1 sequence (Q99685 1-303): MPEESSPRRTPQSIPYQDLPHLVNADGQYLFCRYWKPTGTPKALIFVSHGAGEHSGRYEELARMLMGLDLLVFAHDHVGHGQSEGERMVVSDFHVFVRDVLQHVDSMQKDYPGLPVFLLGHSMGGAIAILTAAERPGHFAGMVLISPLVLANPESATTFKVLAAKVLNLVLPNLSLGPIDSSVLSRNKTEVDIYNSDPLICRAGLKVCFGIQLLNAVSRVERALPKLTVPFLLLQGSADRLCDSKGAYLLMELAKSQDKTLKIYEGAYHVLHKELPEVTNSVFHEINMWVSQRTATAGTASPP
Put plainly: 2-AG assay (MAGL inhibitory activity, hydrolysis of 2-arachidonoylglycerol followed by mass spectrometry). The conditions noted are these: 50 pM MAGL, 8 μM 2-arachidonoylglycerol, 15 min preincubation, 30 min incubation at RT. The class given is biochemical. How it is done: Compounds were profiled for MAGL inhibitory activity by determining the enzymatic activity by following the hydrolysis of the natural substrate 2-arachidonoylglycerol (2-AG) resulting in arachidonic acid, which can be followed by mass spectrometry. This assay is hereinafter abbreviated “2-AG assay”.
The 2-AG assay was carried out in 384 well assay plates (PP, Greiner Cat #784201) in a total volume of 20 μL. Compound dilutions were made in 100% DMSO (VWR Chemicals 23500.297) in a polypropylene plate in 3-fold dilution steps to give a final concentration range in the assay from 12.5 μM to 0.8 pM. 0.25 μL compound dilutions (100% DMSO) were added to 9 μL MAGL in assay buffer (50 mM TRIS (GIBCO, 15567-027), 1 mM EDTA (Fluka, 03690-100 mL), 0.01% (v/v) Tween. After shaking, the plate was incubated for 15 min at RT. To start the reaction, 10 μL 2-arachidonoylglycerol in assay buffer was added. The final concentrations in the assay was 50 pM MAGL and 8 μM 2-arachidonoylglyerol. After shaking and 30 min incubation at RT, the reaction was quenched by the addition of […] of ACN containing 4 μM of d8-arachidonic acid. The amount of arachidonic acid was traced by an online SPE system (Agilent Rapidfire) coupled to a triple quadrupole mass spectrometer (Agilent 6460). A C18 SPE cartridge (G9205A) was used in an ACN/water liquid setup. The mass spectrometer was operated in negative electrospray mode following the mass transitions 303.1→259.1 for arachidonic acid and 311.1→267.0 for d8-arachidonic acid. The activity of the compounds was calculated based on the ratio of intensities [arachidonic acid/d8-arachidonic acid].
Usually IC50 stands for the concentration needed to halve the response being measured. The low end stands for inhibition by little substance, the high end for a need for much substance. As for `Cc1c[nH]nc1-c1cccc(C(=O)N2CCN3C[C@@](O)(c4ccc(Cl)cc4)CC[C@@H]3C2)c1F` [Example 15, [(7S,9aR)-7-(4-chlorophenyl)-7-hydroxy-3,4,6,8,9,9a-hexahydro-1H-pyrido[1,2-a]pyrazin-2-yl]-[2-fluoro-3-(4-methl1-1H-pyrazol-3-yl)phenyl]methanone], the IC50 came out at 168 nM.

For the compound `Cc1cn[nH]c1-c1cccc(C(=O)N2CCN3C[C@@](O)(c4ccc(Cl)cc4)CC[C@@H]3C2)c1Cl` [Example 16, [(7S,9aR)-7-(4-chlorophenyl)-7-hydroxy-3,4,6,8,9,9a-hexahydro-1H-pyrido[1,2-a]pyrazin-2-yl]-[2-chloro-3-(4-methyl-1H-pyrazol-5-yl)phenyl]methanone], the IC50 came to 10.3 nM.

Compound `Cc1c[nH]nc1-c1cccc(C(=O)N2CCN3C[C@@](O)(c4ccc(Cl)cc4)CC[C@@H]3C2)c1` [Example 17] returned an IC50 of 255 nM.

For the compound `COc1cccc(C(=O)N2CCN3C[C@@](O)(c4ccc(C(F)(F)F)cn4)CC[C@@H]3C2)c1Cl` [Example 18], the IC50 is 97.2 nM.

In turn, `COc1cccc(C(=O)N2CCN3C[C@](O)(c4ccc(C(F)(F)F)cn4)CC[C@H]3C2)c1Cl` [Example 19, [(7S,9aS)-7-hydroxy-7-[5-(trifluoromethyl)pyridin-2-yl]-3,4,6,8,9,9a-hexahydro-1H-pyrido[1,2-a]pyrazin-2-yl]-(2-chloro-3-methoxyphenyl)methanone] showed an IC50 of 150 nM.

`O=C(c1cccc(-c2ccn[nH]2)c1Cl)N1CCN2C[C@@](O)(c3ccc(C(F)(F)F)cn3)CC[C@@H]2C1` [Example 20, [(7R,9aR)-7-hydroxy-7-[5-(trifluoromethyl)pyridin-2-yl]-3,4,6,8,9,9a-hexahydro-1H-pyrido[1,2-a]pyrazin-2-yl]-[2-chloro-3-(1H-pyrazol-5-yl)phenyl]methanone] returned an IC50 of 11.5 nM.

The compound `O=C(c1cccc(N2CCOCC2)c1F)N1CCN2C[C@@](O)(c3ccc(Cl)cc3)CC[C@@H]2C1` [Example 21, [(7S,9aR)-7-(4-chlorophenyl)-7-hydroxy-3,4,6,8,9,9a-hexahydro-1H-pyrido[1,2-a]pyrazin-2-yl]-(2-fluoro-3-morpholino-phenyl)methanone] came in with an IC50 of 351 nM.

`CC(C)(C)OC(=O)N1CCN(c2cccc(C(=O)N3CCN4C[C@@](O)(c5ccc(Cl)cc5)CC[C@@H]4C3)c2F)CC1` [Example 22, tert-butyl 4-[3-[(7S,9aR)-7-(4-chlorophenyl)-7-hydroxy-3,4,6,8,9,9a-hexahydro-1H-pyrido[1,2-a]pyrazine-2-carbonyl]-2-fluorophenyl]piperazine-1-carboxylate] gave an IC50 of 838 nM.

`O=C(c1cccc(N2CCNCC2)c1F)N1CCN2C[C@@](O)(c3ccc(Cl)cc3)CC[C@@H]2C1` [Example 23, [(7S,9aR)-7-(4-chlorophenyl)-7-hydroxy-3,4,6,8,9,9a-hexahydro-1H-pyrido[1,2-a]pyrazin-2-yl]-(2-fluoro-3-piperazin-1-ylphenyl)methanone] registered an IC50 of 656 nM.

`O=C(c1cccc(/C=C\c2ccccc2)c1Br)N1CCN2C[C@@H](c3ccc(Cl)cc3)CC[C@@H]2C1` [Example 27, [(7R,9aR)-7-(4-chlorophenyl)-1,3,4,6,7,8,9,9a-octahydropyrido[1,2-a]pyrazin-2-yl]-[2-bromo-3-[(Z)-2-phenylethenyl]phenyl]methanone] showed an IC50 of 10.5 nM.

As for `O=C(c1cccc(/C=C/c2ccccc2)c1Br)N1CCN2C[C@@H](c3ccc(Cl)cc3)CC[C@@H]2C1` [Example 28, [(7R,9aR)-7-(4-chlorophenyl)-1,3,4,6,7,8,9,9a-octahydropyrido[1,2-a]pyrazin-2-yl]-[2-bromo-3-[(E)-2-phenylethenyl]phenyl]methanone], the IC50 was determined as 169 nM.

For `CC(C)(C)OC(=O)Nc1ccc(/C=C/c2cccc(C(=O)N3CCN4C[C@@H](c5ccc(Cl)cc5)CC[C@@H]4C3)c2Br)cc1` [Example 29], the IC50 is 7.62 nM.

`C=CC(=O)Nc1ccc(/C=C/c2cccc(C(=O)N3CCN4C[C@@H](c5ccc(Cl)cc5)CC[C@@H]4C3)c2Br)cc1` [Example 30, N-[4-[(E)-2-[3-[(7R,9aR)-7-(4-chlorophenyl)-1,3,4,6,7,8,9,9a-octahydropyrido[1,2-a]pyrazine-2-carbonyl]-2-bromophenyl]ethenyl]phenyl]prop-2-enamide]: the half-inhibitory concentration (IC50) is 18.5 nM.

For `O=C(c1cccc(N2CC(O)C2)c1Cl)N1CCN2C[C@@](O)(c3ccc(C(F)(F)F)cn3)CC[C@@H]2C1` [Example 32, [(7R,9aR)-7-hydroxy-7-[5-(trifluoromethyl)pyridin-2-yl]-3,4,6,8,9,9a-hexahydro-1H-pyrido[1,2-a]pyrazin-2-yl]-[2-chloro-3-(3-hydroxyazetidin-1-yl)phenyl]methanone], the IC50 was found to be 72.7 nM.

`O=C(c1cccc(O)c1Cl)N1CCN2C[C@@](O)(c3ccc(Cl)cc3)CC[C@@H]2C1` [Example 33, [(7S,9aR)-7-(4-chlorophenyl)-7-hydroxy-3,4,6,8,9,9a-hexahydro-1H-pyrido[1,2-a]pyrazin-2-yl]-(2-chloro-3-hydroxyphenyl)methanone] showed an IC50 of 159 nM.

Regarding `O=C1CN(c2cccc(C(=O)N3CCN4C[C@@](O)(c5ccc(Cl)cc5)CC[C@@H]4C3)c2F)CCN1` [Example 34, 4-(3-((7S,9aR)-7-(4-chlorophenyl)-7-hydroxyoctahydro-2H-pyrido[1,2-a]pyrazine-2-carbonyl)-2-fluorophenyl)piperazin-2-one], the midpoint of inhibition, the IC50, lay at 145 nM.

`O=C1CN(c2cccc(C(=O)N3CCN4C[C@@](O)(c5ccc(Cl)cc5)CC[C@@H]4C3)c2Cl)CCN1` [Example 35, 4-[3-[(7S,9aR)-7-(4-chlorophenyl)-7-hydroxy-3,4,6,8,9,9a-hexahydro-1H-pyrido[1,2-a]pyrazine-2-carbonyl]-2-chlorophenyl]piperazin-2-one] registered an IC50 of 86 nM.

Turning to `O=C(c1cccc(N2CCC23COC3)c1Cl)N1CCN2C[C@@](O)(c3ccc(Cl)cc3)CC[C@@H]2C1` [Example 36, [(7S,9aR)-7-(4-chlorophenyl)-7-hydroxy-3,4,6,8,9,9a-hexahydro-1H-pyrido[1,2-a]pyrazin-2-yl]-[2-chloro-3-(6-oxa-1-azaspiro[3.3]heptan-1-yl)phenyl]methanone], the IC50 was 76 nM.

With `O=C(c1cccc(N2CC(O)C2)c1F)N1CCN2C[C@@](O)(c3ccc(F)c(Cl)c3)CC[C@@H]2C1` [Example 39, [(7S,9aR)-7-(3-chloro-4-fluorophenyl)-7-hydroxy-3,4,6,8,9,9a-hexahydro-1H-pyrido[1,2-a]pyrazin-2-yl]-[2-fluoro-3-(3-hydroxyazetidin-1-yl)phenyl]methanone], the IC50 is 38.5 nM.

In turn, `O=C(c1cccc(N2CC(O)C2)c1Cl)N1CCN2C[C@@](O)(c3ccc(F)c(Cl)c3)CC[C@@H]2C1` [Example 40] yielded an IC50 of 6.91 nM.

For `O=C(c1cccc(F)c1Cl)N1CCN2C[C@@](O)(c3ccc(C(F)(F)F)cn3)CC[C@@H]2C1` [Example 41, [(7R,9aR)-7-hydroxy-7-[5-(trifluoromethyl)pyridin-2-yl]-3,4,6,8,9,9a-hexahydro-1H-pyrido[1,2-a]pyrazin-2-yl]-(2-chloro-3-fluorophenyl)methanone], the IC50 worked out at 392 nM.
